Test results reported in ChEMBL document CHEMBL1201862, “PubChem BioAssay data set” (2004).
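Test compounds were applied to cells in 96-well plates for 48 hours at 5 doses. GI50 = concentration required for 50% inhibition of growth.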 The source made the active and inactive calls. Cut-off read from the data, not from the text of the source: active = GI50 up to about 1.1 µM and inactive = higher.

Columns and labels:
Experiment in all cases: NCI-60 cell line screen, 48 h
[1] = test system: COLO 205
[2] = test system: UACC-62
[3] = test system: A498
[4] = test system: EKVX
[5] = test system: PC-3
[6] = test system: SR
[7] = test system: RXF 393
[8] = test system: HOP-62
[9] = test system: HCC 2998
[10] = test system: RPMI-8226
[11] = test system: A549
[12] = test system: NCI-H460
[13] = test system: NCI-H23
[14] = test system: UO-31
[15] = test system: HL-60
[16] = test system: SK-MEL-5
[17] = test system: SF-268
[18] = test system: M14
[19] = test system: MDA-MB-435
[20] = test system: KM12

Measured: GI50

CO/N=C(/C(=O)OC)c1ccccc1COc1ccccc1C(F)(F)F
inactive: [1] 25.4 µM | [2] 26.3 µM | [3] 39.7 µM | [4] 11.3 µM | [5] 33.5 µM | [6] 8.32 µM | [7] > 100 µM | [8] 63.8 µM | [9] 27.9 µM | [10] 14.4 µM | [11] 21.7 µM | [12] 32.4 µM | [13] 22.1 µM | [14] 39.1 µM | [15] 10.5 µM | [16] 6.22 µM | [17] 32.6 µM | [18] 26.9 µM | [19] 24.4 µM | [20] 30.2 µM

O=P12N(CCN1c1ccccc1)CCN2c1ccccc1
inactive: [1] > 100 µM | [2] > 100 µM | [3] > 100 µM | [4] > 100 µM | [5] > 100 µM | [6] > 100 µM | [7] > 100 µM | [8] > 100 µM | [9] > 100 µM | [10] > 100 µM | [11] > 100 µM | [12] > 100 µM | [13] > 100 µM | [14] > 100 µM | [15] > 100 µM | [16] > 100 µM | [17] > 100 µM | [18] 66.8 µM | [19] > 100 µM | [20] > 100 µM
